How the values were obtained:
Format in all cases: in vivo, mouse (BALB/c)
[1] = system: ovalbumin-sensitized and challenged mice (tissue infiltrating eosinophils); assay: Tissue infiltrating eosinophils, MBP immunoperoxidase and morphometric analysis of lung sections; details: i.p. 2 h prior to each allergen challenge; CGRP 20 μg/kg, CGRP fragment 8-37 100 μg/kg (FIG. 3D)
Method: For histology and immunohistochemistry, the lungs of the mice were inflated and fixed with 4% paraformaldehyde in PBS for 24 h at 4° C. followed by processing into paraffin. Five μm-thick sections were cut from the paraffin blocks, deparaffinized and stained with hematoxylin and eosin for routine histology.
The pan neuronal marker PGP9.5, CGRP and tissue eosinophils were detected by immunoperoxidase. Unless otherwise stated, all incubations were carried out at room temperature. All washes were performed with TBS (50 mM TRIS-buffered saline pH 7.6) 3 times for 5 min. Endogenous peroxidase was blocked by incubation of tissue sections with H2O2 (0.3% in methanol) for 30 minutes. […]
For tissue eosinophils, the sections were pretreated for 5 min with 0.01% trypsin in TBS to retrieve antigens. […] CGRP was detected with a polyclonal rabbit anti-CGRP antibody (Biogenesis) diluted 1:200. […]
The data of immunohistochemistry were quantitatively analyzed (morphometric analysis) on a G-3 Macintosh computer using the National Institutes of Health (NIH) Scion Image analysis software. […]
The number of tissue infiltrating eosinophils was determined by counting all MBP-positive cells present in the airway wall including the adventitia. When eosinophils were present in tissue areas connecting blood vessels to adjacent airways only 50% of these cells were counted for these airways. […]

[2] = system: ovalbumin-sensitized and challenged mice (airway hyperresponsiveness to methacholine); assay: Airway function: change in lung resistance (RL) and dynamic compliance (Cdyn) after aerosolized methacholine, ovalbumin-sensitized and challenged mice
Method: (§1) Mice (8/group/experiment) were sensitized by intraperitoneal injection of 20 μg of ovalbumin (Grade V, Sigma) emulsified in 2.25 mg alum (Alum® Inject; Pierce, Rockford, Ill.) in a total volume of 100 μl on days 0 and 14. On days 28, 29 and 30, mice were challenged via the airways by a 20-minute inhalation exposure to aerosols of ovalbumin (1% in saline) obtained from a DeVilbiss ultrasonic nebulizer (particle size 1-5 μm). Age-matched, control animal groups (8/group/experiment) consisted of mice injected with alum alone (non-sensitized) and exposed either to aerosols of saline or to aerosolized ovalbumin, and mice sensitized to ovalbumin but subsequently exposed to aerosols of saline.
Briefly, mice were sensitized and challenged to ovalbumin as described in Example 1. Airway function was assessed in vivo in anesthetized, mechanically ventilated mice as previously described (see, for example, Takeda et al., 1997, J. Exp. Med. 186, 449-454) by measuring changes in lung resistance (RL) and dynamic compliance (Cdyn) in response to intratracheal challenge with aerosolized methacholine at doses of 1.56, 3.125, 6.25 and 12.5 mg/ml in saline. Baseline values were recorded from data obtained after intra-tracheal challenge with aerosolized saline. The data are presented in percent of change from baseline RL, and Cdyn.

[3] = system: ovalbumin-sensitized and challenged mice (BAL eosinophils); assay: Bronchoalveolar lavage (BAL) differential cell counts, ovalbumin-sensitized and challenged mice; details: i.p. 2 h prior to each allergen challenge; CGRP 20 μg/kg, CGRP fragment 8-37 100 μg/kg (FIG. 3C)
Method: as §1
Following assessment of airway function, the lungs were lavaged once with 1 ml of sterile Hank's balanced salt solution (HBSS) pre-warmed at 37° C. The recovered BAL fluids were placed in Eppendorf tubes and were centrifuged at 4° C. for 5 min at 1,500 rpm. The obtained cell pellets were resuspended in 200 μl of sterile phosphate-buffered saline (PBS) and total cell numbers were determined from counting of crystal violet-stained aliquots using a hemacytometer. Differential cell counts were determined from cytospin preparations stained with Leukostat (Fisher Diagnostics, Pittsburgh, Pa.). At least 200 cells were counted from each slide in a blinded fashion.

## CGRP(8-37): highly selective CGRP receptor antagonist, human synthetic CGRP (fragment 8-37), from Sigma
[1]
  Numbers of tissue infiltrating eosinophils: no significant effect
[2]; CGRP i.p. after allergen challenge period, animals pretreated with CGRP(8-37) (FIGS. 4A, 4B)
  Inhibitory effect of CGRP on AHR after pretreatment with the receptor antagonist: totally neutralized
[2]; administration after the period of allergen challenge, CGRP i.p. at 2 h prior to assessment of airway function (FIGS. 4A, 4B)
  AHR in sensitized mice: did not alter
[2]; i.p. 2 h prior to each allergen challenge, CGRP 20 μg/kg, CGRP fragment 8-37 100 μg/kg (FIGS. 3A, 3B)
  Extent / development of AHR: did not produce any significant change
[3]
  Numbers of BAL eosinophils: no significant effect
